One assay relates to M. luteus ATCC 10240. Briefly: Antimicrobial assay. It counts as cell-based, Micrococcus luteus. To be noted: at up to 100 µM.
Assay [1] deals with Enteroccocus faecalis ATCC 27275. Briefly: MIC micro-dilution assay. It counts as cell-based, Enterococcus faecalis. To be noted: BHI, 37 °C, 18 h.
The test system of assay [2] is Staphylococcus aureus ATCC 29213. In words: MIC micro-dilution assay. To be noted: MH, 37 °C, 18 h. It counts as cell-based.
A further assay relates to C. perfringens. Format: cell-based, Clostridium perfringens. To be noted: radial diffusion assays, RCM.
The test system of assay [3] is Bacillus subtilis ATCC 6633. In words: MIC micro-dilution assay. Format: cell-based. To be noted: MH, 37 °C, 18 h.
For assay [4], the system named is Bacillus coagulans ATCC 7050. Briefly: MIC micro-dilution assay. To be noted: MH, 37 °C, 18 h. Format: cell-based.
The subject of assay [5] is Escherichia coli ATCC 25922. Briefly: MIC micro-dilution assay. Format: cell-based. To be noted: MH, 37 °C, 18 h.
For assay [6], the system named is Bacillus cereus LSPQ 2872. In words: MIC micro-dilution assay. It counts as cell-based. To be noted: MH, 37 °C, 18 h.
Assay [7] concerns Streptococcus thermophilus RBL 18 FYE 41. Briefly: MIC micro-dilution assay. Format: cell-based. To be noted: MH, 37 °C, 18 h.
The subject of assay [8] is Clostridium tyrobutiricum ATCC 25755. In words: MIC micro-dilution assay. Format: cell-based, Clostridium tyrobutyricum. To be noted: RCM, 37 °C, 18 h.
Assay [9] relates to Lactococcus lactis ATCC 19257. In words: MIC micro-dilution assay. To be noted: MRS, 37 °C, 18 h. It counts as cell-based.
Assay [10] concerns Bifidobacterium animalis ATCC 27536. In words: MIC micro-dilution assay. Format: cell-based. To be noted: RCM, 37 °C, 18 h.
Assay [11] concerns Lactobacillus acidophilus ATCC 4356. In words: MIC micro-dilution assay. It counts as cell-based. To be noted: MRS, 37 °C, 18 h.
Assay [12] has as its system Staphylococcus aureus ATCC 25923. In words: MIC micro-dilution assay. Format: cell-based. To be noted: MH, 37 °C, 18 h.
Assay [13] deals with Enterococcus hirae ATCC 10541. Briefly: MIC micro-dilution assay. It counts as cell-based. To be noted: BHI, 37 °C, 18 h.
For assay [14], the system named is Staphylococcus aureus ATCC 6538. Briefly: MIC micro-dilution assay. Format: cell-based. To be noted: MH, 37 °C, 18 h.
Assay [15] has as its system L. ivanovii HPB28, L. monocytogenes LSD530, L. monocytogenes ATCC 19111. To be noted: L. ivanovii HPB28, L. monocytogenes LSD530 and ATCC 19111; micro-dilution, 37 °C, 18 h.
The next assay concerns L. monocytogenes LSD530. To be noted: micro-dilution, twofold serial dilutions, 37 °C, 18 h, absorbance 595 nm, means of two independent experiments in duplicate.
The subject of a further assay is P. acidilactici UL5. Briefly: MIC micro-dilution assay. It counts as cell-based, Pediococcus acidilactici. To be noted: P. acidilactici UL5 (pediocin producer, immune), 37 °C, 18 h, absorbance 595 nm, means of two independent experiments in duplicate.
Assay [16] relates to L. monocytogenes ATCC 19111. To be noted: micro-dilution, twofold serial dilutions, 37 °C, 18 h, absorbance 595 nm, means of two independent experiments in duplicate.
Another assay has as its system L. ivanovii HPB28. To be noted: micro-dilution, twofold serial dilutions, 37 °C, 18 h, absorbance 595 nm, means of two independent experiments in duplicate.
Assay [17] has as its system L. monocytogenes ATCC 19111. To be noted: L. monocytogenes ATCC 19111, soft agar TSBYE; 75 µL of 1 mg/mL peptide (or UL5 culture supernatant) per well; 37 °C, 18 h.

Here are results for three molecules from paper PMC5998028, “Synthesis, antimicrobial activity and conformational analysis of the class IIa bacteriocin pediocin PA-1 and analogs thereof” (Scientific Reports, 2018).

As for `CC[C@H](C)[C@@H]1NC(=O)[C@@H](NC(=O)[C@@H](NC(=O)[C@@H](NC(=O)[C@H](C)NC(=O)[C@H](CCCCN)NC(=O)CNC(=O)[C@H](Cc2c[nH]c3ccccc23)NC(=O)[C@H](CC(=O)O)NC(=O)[C@@H](NC(=O)[C@H](CO)NC(=O)[C@@H]2CSSC[C@H](NC(=O)[C@@H](NC(=O)[C@@H](NC(=O)CNC(=O)[C@H](CC(N)=O)NC(=O)CNC(=O)[C@H](Cc3ccc(O)cc3)NC(=O)[C@H](Cc3ccc(O)cc3)NC(=O)[C@@H](N)CCCCN)C(C)C)[C@@H](C)O)C(=O)NCC(=O)N[C@@H](CCCCN)C(=O)N[C@@H](Cc3c[nH]cn3)C(=O)N[C@@H](CO)C(=O)N2)C(C)C)[C@@H](C)O)[C@@H](C)O)CSSC[C@@H](C(=O)O)NC(=O)[C@H](CCCCN)NC(=O)[C@H](Cc2c[nH]cn2)NC(=O)[C@H](CC(N)=O)NC(=O)CNC(=O)[C@H](CCC(N)=O)NC(=O)[C@H](Cc2c[nH]cn2)NC(=O)CNC(=O)CNC(=O)[C@H]([C@@H](C)O)NC(=O)[C@H](C)NC(=O)[C@H](Cc2c[nH]c3ccccc23)NC(=O)[C@H](C)NC(=O)[C@H](CCSC)NC(=O)[C@H](C)NC(=O)CNC(=O)[C@H](CC(N)=O)NC(=O)[C@H](CC(N)=O)NC(=O)[C@H]([C@@H](C)CC)NC1=O` [3c, pediocin PA-1], the “activity against M. luteus ATCC 10240” value in the assay with M. luteus ATCC 10240 is listed as “no activity”.

As to `CC[C@H](C)[C@H](NC(=O)[C@H](CS)NC(=O)[C@@H](NC(=O)[C@@H](NC(=O)[C@H](C)NC(=O)[C@H](CCCCN)NC(=O)CNC(=O)[C@H](Cc1c[nH]c2ccccc12)NC(=O)[C@H](CC(=O)O)NC(=O)[C@@H](NC(=O)[C@H](CO)NC(=O)[C@H](CS)NC(=O)[C@H](CO)NC(=O)[C@H](Cc1c[nH]cn1)NC(=O)[C@H](CCCCN)NC(=O)CNC(=O)[C@H](CS)NC(=O)[C@@H](NC(=O)[C@@H](NC(=O)CNC(=O)[C@H](CC(N)=O)NC(=O)CNC(=O)[C@H](Cc1ccc(O)cc1)NC(=O)[C@H](Cc1ccc(O)cc1)NC(=O)[C@@H](N)CCCCN)C(C)C)[C@@H](C)O)C(C)C)[C@@H](C)O)[C@@H](C)O)C(=O)N[C@H](C(=O)N[C@@H](CC(N)=O)C(=O)N[C@@H](CC(N)=O)C(=O)NCC(=O)N[C@@H](C)C(=O)N[C@@H](CC(C)C)C(=O)N[C@@H](C)C(=O)N[C@@H](Cc1c[nH]c2ccccc12)C(=O)N[C@@H](C)C(=O)N[C@H](C(=O)NCC(=O)NCC(=O)N[C@@H](Cc1c[nH]cn1)C(=O)N[C@@H](CCC(N)=O)C(=O)NCC(=O)N[C@@H](CC(N)=O)C(=O)N[C@@H](Cc1c[nH]cn1)C(=O)N[C@@H](CCCCN)C(=O)N[C@@H](CS)C(=O)O)[C@@H](C)O)[C@@H](C)CC` [compound 4], the MIC result in assay [1], in assay [2], in [3], in assay [4], in assay [5] and in assay [6] was “n.a. (no activity detected at concentrations up to 100 µM)” in each case. Besides, the MIC result in [7], in assay [8], in assay [9], in assay [10], in assay [11] and in assay [12] was “n.a. (no activity detected at concentrations up to 100 µM)” each time. The MIC entry in assay [13] and in [14] was “n.a. (no activity detected at concentrations up to 100 µM)” each time. For the same molecule, in the assay on C. perfringens, the “inhibition diameters against C. perfringens, range over two strains” value was 22–25 mm.

Take “KYYGNGVTAGKHSASVDWGKATTAIINNGAMAWATGGHQGNHKA [compound 6]”: the “MIC, range over the Listeria target strains” value in assay [15] was “completely inactive”. The Minimal inhibitory concentration result with L. monocytogenes LSD530 is “n.a. (no activity detected at concentrations up to 100 µM)”; in the assay on P. acidilactici UL5, “n.a. (no activity detected at concentrations up to 100 µM)”; in [16], “n.a. (no activity detected at concentrations up to 100 µM)”; with L. ivanovii HPB28 it was “n.a.^a (no activity detected at concentrations up to 100 µM)”. In addition, the Inhibition zone diameter result in assay [17] is “no activity”.
